Laboratory results taken from patent US20090087845A1, “Genetic Markers Of True Low Birth Weight” (priority 2005, published 2009).
Where “and” joins values, the source holds several entries; their conditions need not be identical. Equal entries are not always repeated.

Test system: placental gene expression
Experiment: Placental gene expression (Affymetrix Rat Genome Chip 230.2) after SSRI (fluoxetine) exposure throughout gestation
Assay type: in vivo
Description: Gene expression data from pregnant rats under different forms of dietary restriction was gathered. […] (N=8) • Group 2 (CR50): Rats Given 50% of their Normal Daily Intake of Food. (N=5) • Group 3 (CR70): Rats Given 70% of their Normal Daily Intake of Food. […] (N=6) Placentas from the rats of each Group were harvested on Day 21 of gestation. RNA was extracted and gene expression was measured based on hybridization of RNA to Affymetrix Rat Genome Chips™ (230.2) (Affymetrix, Santa Clara, Calif.).
In order to determine whether placental gene expression profiling can be used to identify other prenatal exposures such as toxicants and drugs, a group of rats with drug exposure was monitored as described above. […] As with control, CR50, CR70, and HF groups, placentas from the mothers were sampled after 21 days of gestation and gene expression monitored utilizing an Affymetrix Rat Genome Chip.

[1] = rat placenta, day 21 of gestation, individual animals of SSRI group

CNCCC(Oc1ccc(C(F)(F)F)cc1)c1ccccc1 (stereo not shown) [fluoxetine, Fluoxetine]
expression, probeset 1391042_at (placenta, SSRI-exposed samples): 7.197 and 7.167 and 6.844 and 6.389 and 6.757 and 6.835
expression, probeset 1391078_at (placenta, SSRI-exposed samples): 9.617 and 9.614 and 9.751 and 9.434 and 10.05 and 9.264
expression, probeset 1391376_at (placenta, SSRI-exposed samples): 7.297 and 7.473 and 6.881 and 6.738 and 6.838 and 6.654
expression, probeset 1391555_at (placenta, SSRI-exposed samples): 7.012 and 7.728 and 6.644 and 6.541 and 6.178 and 6.968
expression, probeset 1391709_at (placenta, SSRI-exposed samples): 4.661 and 4.684 and 4.722 and 4.806 and 4.713 and 4.47
expression, probeset 1392028_at (placenta, SSRI-exposed samples): 6.162 and 6.747 and 6.346 and 6.242 and 6.323 and 6.159
expression, probeset 1392231_at (placenta, SSRI-exposed samples): 6.879 and 7.148 and 7.615 and 7.767 and 7.913 and 7.35
expression, probeset 1392936_at (placenta, SSRI-exposed samples): 8.882 and 8.406 and 9.262 and 8.975 and 9.393 and 8.807
expression, probeset 1392950_at (placenta, SSRI-exposed samples): 3.949 and 4.094 and 3.999 and 4.085 and 4.164 and 3.919
expression, probeset 1393104_at (placenta, SSRI-exposed samples): 5.321 and 5.704 and 5.504 and 5.333 and 5.921 and 5.58
expression, probeset 1393266_at (placenta, SSRI-exposed samples): 4.99 and 5.174 and 4.982 and 4.609 and 4.824 and 4.636
expression, probeset 1393517_at (placenta, SSRI-exposed samples): 6.631 and 6.746 and 6.287 and 6.483 and 6.515 and 6.633
expression, probeset 1393539_at (placenta, SSRI-exposed samples): 6.157 and 5.169 and 4.952 and 5.172 and 5.083 and 5.053
expression, probeset 1393580_at (placenta, SSRI-exposed samples): 5.687 and 6.03 and 5.819 and 5.753 and 6.108 and 5.967
expression, probeset 1393752_at (placenta, SSRI-exposed samples): 6.208 and 6.548 and 6.148 and 6.455 and 6.651 and 6.417
expression, probeset 1393798_at (placenta, SSRI-exposed samples): 3.547 and 3.62 and 3.802 and 3.629 and 3.836 and 3.782
expression, probeset 1393853_at (placenta, SSRI-exposed samples): 5.346 and 5.933 and 5.865 and 5.835 and 5.821 and 5.912
expression, probeset 1393939_at (placenta, SSRI-exposed samples): 4.71 and 4.865 and 4.742 and 4.586 and 4.592 and 4.507
expression, probeset 1393989_at (placenta, SSRI-exposed samples): 5.99 and 6.475 and 6.07 and 6.001 and 6.425 and 6.268
expression, probeset 1394361_a_at (placenta, SSRI-exposed samples): 4.204 and 4.507 and 4.247 and 4.097 and 4.402 and 4.275
expression, probeset 1394414_at (placenta, SSRI-exposed samples): 9.565 and 9.667 and 9.428 and 9.394 and 9.769 and 9.655
expression, probeset 1394498_at (placenta, SSRI-exposed samples): 5.626 and 5.476 and 5.778 and 5.78 and 5.589 and 5.688
expression, probeset 1394762_at (placenta, SSRI-exposed samples): 3.748 and 3.837 and 3.727 and 3.741 and 3.941 and 3.853
expression, probeset 1394790_at (placenta, SSRI-exposed samples): 6.185 and 6.363 and 6.208 and 6.069 and 6.016 and 6.008
expression, probeset 1395303_at (placenta, SSRI-exposed samples): 3.284 and 3.242 and 3.289 and 3.3 and 3.261 and 3.274
expression, probeset 1395316_at (placenta, SSRI-exposed samples): 6.786 and 6.744 and 6.399 and 5.525 and 5.977 and 6.48
expression, probeset 1395875_at (placenta, SSRI-exposed samples): 7.411 and 7.212 and 7.607 and 7.667 and 7.918 and 7.66
expression, probeset 1395951_at (placenta, SSRI-exposed samples): 4.46 and 4.582 and 4.341 and 4.395 and 4.516 and 4.568
expression, probeset 1395970_at (placenta, SSRI-exposed samples): 4.781 and 4.846 and 4.597 and 4.342 and 4.707 and 4.733
expression, probeset 1396104_at (placenta, SSRI-exposed samples): 5.464 and 5.416 and 5.468 and 5.564 and 5.567 and 5.601
expression, probeset 1396326_at (placenta, SSRI-exposed samples): 5.928 and 5.926 (2×) and 5.857 and 6.008 and 5.802
expression, probeset 1397116_at (placenta, SSRI-exposed samples): 3.723 and 3.556 and 3.711 and 3.773 and 3.705 and 3.589
expression, probeset 1397187_at (placenta, SSRI-exposed samples): 5.847 and 6.088 and 6.024 and 5.915 and 5.91 and 5.886
expression, probeset 1397500_x_at (placenta, SSRI-exposed samples): 6.721 and 7.079 and 6.818 and 6.587 and 6.983 and 6.477
expression, probeset 1397676_at (placenta, SSRI-exposed samples): 6.024 and 6.128 and 5.935 and 6.174 and 6.311 and 5.898
expression, probeset 1397738_at (placenta, SSRI-exposed samples): 4.159 and 4.154 and 4.198 and 4.197 and 4.131 and 4.271
expression, probeset 1397834_at (placenta, SSRI-exposed samples): 6.223 and 6.44 and 5.752 and 5.565 and 5.81 and 5.978
expression, probeset 1397911_at (placenta, SSRI-exposed samples): 5.777 and 6.103 and 5.669 and 5.522 and 5.664 and 5.597
expression, probeset 1397956_at (placenta, SSRI-exposed samples): 5.497 and 5.765 and 4.575 and 4.745 and 5.255 and 5.147
expression, probeset 1398025_at (placenta, SSRI-exposed samples): 6.981 and 7.045 and 6.561 and 6.889 and 6.773 and 6.868
expression, probeset 1398196_at (placenta, SSRI-exposed samples): 5.275 and 5.259 and 5.614 and 5.101 and 5.599 and 5.566
expression, probeset 1398208_s_at (placenta, SSRI-exposed samples): 6.67 and 6.822 and 6.248 and 6.32 and 5.983 and 6.359
expression, probeset 1398571_x_at (placenta, SSRI-exposed samples): 5.476 and 5.783 and 5.339 and 5.581 and 5.638 and 5.597
number of probe sets whose expression was altered by exposure (rat placenta, day 21 of gestation, approximately 10 mg/kg/day in drinking water throughout pregnancy, vs control): 281 probe sets
Log base 2 expression for G6 (probe set 1369132, solute carrier 18, member 2) [1]: 8.97 log base 2 and 9.76 log base 2 and 8.56 log base 2 and 8.71 log base 2 and 8.41 log base 2 and 9.1 log base 2
Log base 2 expression for G7 (probe set 1368474, vascular adhesion molecule 1) [1]: 5.83 log base 2 and 6.83 log base 2 and 5.81 log base 2 and 5.78 log base 2 and 6.05 log base 2
Log base 2 expression for G8 (probe set 1388116, collagen type 1 alpha) [1]: 8.34 log base 2 and 8.25 log base 2 and 7.56 log base 2 and 7.7 log base 2 and 7.57 log base 2 and 7.69 log base 2
Log base 2 expression for G9 (probe set 1368558, allograft inflammatory factor 1) [1]: 5.07 log base 2 and 5.61 log base 2 and 6.11 log base 2 and 5.3 log base 2 and 5.39 log base 2
Log base 2 expression for G10 (probe set 1387796, arachidonate 12 lipoxygenase) [1]: 7.19 log base 2 and 8.37 log base 2 and 8.23 log base 2 and 6.76 log base 2 and 8.03 log base 2
